Measurements as given in US6355799B1, “Substituted benzene compounds, process for their preparation, and herbicidal and defoliant compositions containing them” (ISK Americas Incorporated, priority 1997, dated 2002).

How the values were obtained:
Type in all cases: in vivo
[1] = system: redroot pigweed (Amaranthus retroflexus, AMARE); assay: Pre-emerge test, greenhouse herbicide activity screening; conditions: pre-emerge, rated 14 days after application, 0 = no damage, 100 = complete death
In short: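 Rating: 0–100 visual injury, 14 DAA. Application: acetone, 187 l/ha, 15–1000 g ai/ha, flat-fan track sprayer with nozzle 40–45 cm above soil or canopy. Post-emerge runs used 0.25% v/v surfactant on 2–3 leaf plants.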

[2] = system: johnsongrass (Sorghum halepense, SORHA); assay: as above; conditions: pre-emerge, rated 14 days after application, 0 = no damage, 100 = complete death
In short: (§1)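 Visual ratings on a 0-100 scale (0 no damage, 100 all plants dead) were taken at 14 days after treatment. Rates of 15-1000 g ai/ha in acetone, 187 l/ha, were sprayed onto soil one day after planting (pre-emerge) or onto 2-3 leaf plants with 0.25% v/v surfactant (post-emerge).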

[3] = system: barnyardgrass (Echinochloa crus-galli, ECHCG); assay: as above; conditions: pre-emerge, rated 14 days after application, 0 = no damage, 100 = complete death
In short: as §1

[4] = system: common ragweed (Ambrosia artemisizfolia L., AMBEL); assay: as above; conditions: pre-emerge, rated 14 days after application, 0 = no damage, 100 = complete death
In short: as §1

[5] = system: green foxtail (Setaria viridis, SETVI); assay: as above; conditions: pre-emerge, rated 14 days after application, 0 = no damage, 100 = complete death
In short: as §1

[6] = system: large crabgrass (Digitaria sanguinalis, DIGSA); assay: as above; conditions: pre-emerge, rated 14 days after application, 0 = no damage, 100 = complete death
In short: as §1

[7] = system: lambsquarters (Chenopodium album, CHEAL); assay: as above; conditions: pre-emerge, rated 14 days after application, 0 = no damage, 100 = complete death
In short: as §1

[8] = system: ivyleaf morningglory (Ipomoea hederacea, IPOHE); assay: as above; conditions: pre-emerge, rated 14 days after application, 0 = no damage, 100 = complete death
In short: as §1

[9] = system: velvetleaf (Abutilon theophrasti, ABUTH); assay: as above; conditions: pre-emerge, rated 14 days after application, 0 = no damage, 100 = complete death
In short: as §1

[10] = system: sicklepod (Cassia obtusifolia, CASOB); assay: as above; conditions: pre-emerge, rated 14 days after application, 0 = no damage, 100 = complete death
In short: as §1

[11] = system: johnsongrass (Sorghum halepense, SORHA); assay: Post-emerge test, greenhouse herbicide activity screening; conditions: phytotoxicity rating 0-100 (0 no damage, 100 complete death), 14 days after application
In short: (§2)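 Compounds in acetone were track-sprayed at 187 l/ha, 15–1000 g ai/ha, onto sandy loam pots. Pre-emerge seeds were sown one day before spraying, with surface watering afterwards. Post-emerge plants were at the 2–3 leaf stage and sprayed with 0.25% v/v non-ionic surfactant. Injury was rated 0–100 at 14 days.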

[12] = system: barnyardgrass (Echinochloa crus-galli, ECHCG); assay: as above; conditions: phytotoxicity rating 0-100 (0 no damage, 100 complete death), 14 days after application
In short: as §2

[13] = system: redroot pigweed (Amaranthus retroflexus, AMARE); assay: as above; conditions: phytotoxicity rating 0-100 (0 no damage, 100 complete death), 14 days after application
In short: as §2

[14] = system: common ragweed (Ambrosia artemisizfolia L., AMBEL); assay: as above; conditions: phytotoxicity rating 0-100 (0 no damage, 100 complete death), 14 days after application
In short: as §2

[15] = system: green foxtail (Setaria viridis, SETVI); assay: as above; conditions: phytotoxicity rating 0-100 (0 no damage, 100 complete death), 14 days after application
In short: as §2

[16] = system: large crabgrass (Digitaria sanguinalis, DIGSA); assay: as above; conditions: phytotoxicity rating 0-100 (0 no damage, 100 complete death), 14 days after application
In short: as §2

[17] = system: lambsquarters (Chenopodium album, CHEAL); assay: as above; conditions: phytotoxicity rating 0-100 (0 no damage, 100 complete death), 14 days after application
In short: as §2

[18] = system: ivyleaf morningglory (Ipomoea hederacea, IPOHE); assay: as above; conditions: phytotoxicity rating 0-100 (0 no damage, 100 complete death), 14 days after application
In short: as §2

[19] = system: velvetleaf (Abutilon theophrasti, ABUTH); assay: as above; conditions: 63 g ai/ha; phytotoxicity rating 0-100 (0 no damage, 100 complete death), 14 days after application
In short: as §2

[20] = system: sicklepod (Cassia obtusifolia, CASOB); assay: as above; conditions: phytotoxicity rating 0-100 (0 no damage, 100 complete death), 14 days after application
In short: as §2

[21] = system: upland rice (Oryza sp., var. Tebonnet, RICE); assay: Pre-emerge test, crop safety; conditions: pre-emerge, rated 14 days after application, 0 = no damage, 100 = complete death
In short: (§3)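 Applied at 15–1000 g ai/ha from acetone in 187 l/ha spray volume. Post-emergence applications included 0.25% v/v non-ionic surfactant and reached plants sown 8–21 days before. Pre-emergence applications were incorporated by surface watering. Efficacy or crop damage was rated on a 0–100 scale after 14 days.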

[22] = system: field corn (Zea mays L., var. Dekalb 535, CORN); assay: Pre-emerge test, crop safety; conditions: pre-emerge, rated 14 days after application, 0 = no damage, 100 = complete death
In short: as §3

[23] = system: upland rice (Oryza sp., var. Tebonnet, RICE); assay: Post-emerge test, crop safety; conditions: phytotoxicity rating 0-100 (0 no damage, 100 complete death), 14 days after application
In short: as §1

[24] = system: field corn (Zea mays L., var. Dekalb 535, CORN); assay: Post-emerge test, crop safety; conditions: phytotoxicity rating 0-100 (0 no damage, 100 complete death), 14 days after application
In short: as §1

COc1c(Cl)cc(F)c(-n2c(=O)cc(C(F)(F)F)n(C)c2=O)c1N1CCCC1 [Compound 1-32]
95: Pre-emerge Herbicidal Activity ECHCG (phytotoxicity rating, scale 0-100) ([3]; 250 g ai/ha)
0: Pre-emerge Herbicidal Activity AMARE (phytotoxicity rating, scale 0-100) ([1]; 63 g ai/ha) | Pre-emerge Herbicidal Activity SORHA (phytotoxicity rating, scale 0-100) ([2]; 63 g ai/ha) | Pre-emerge Herbicidal Activity ECHCG (phytotoxicity rating, scale 0-100) ([3]; 63 g ai/ha) | Pre-emerge Herbicidal Activity AMBEL (phytotoxicity rating, scale 0-100) ([4]; 63 g ai/ha) | Pre-emerge Herbicidal Activity SETVI (phytotoxicity rating, scale 0-100) ([5]; 63 g ai/ha) | Pre-emerge Herbicidal Activity DIGSA (phytotoxicity rating, scale 0-100) ([6]; 63 g ai/ha) | Pre-emerge Herbicidal Activity IPOHE (phytotoxicity rating, scale 0-100) ([8]; 63 g ai/ha) | Post-emerge Herbicidal Activity SORHA ([11]; 63 g ai/ha) | Post-emerge Herbicidal Activity SORHA ([11]; 250 g ai/ha) | Post-emerge Herbicidal Activity ECHCG ([12]; 63 g ai/ha) | Post-emerge Herbicidal Activity ECHCG ([12]; 250 g ai/ha) | Post-emerge Herbicidal Activity AMBEL ([14]; 63 g ai/ha) | Post-emerge Herbicidal Activity SETVI ([15]; 63 g ai/ha) | Post-emerge Herbicidal Activity SETVI ([15]; 250 g ai/ha) | Post-emerge Herbicidal Activity DIGSA ([16]; 63 g ai/ha) | Post-emerge Herbicidal Activity DIGSA ([16]; 250 g ai/ha) | Post-emerge Herbicidal Activity CHEAL ([17]; 63 g ai/ha) | Post-emerge Herbicidal Activity IPOHE ([18]; 63 g ai/ha) | Post-emerge Herbicidal Activity CASOB ([20]; 63 g ai/ha) | Post-emerge Herbicidal Activity CASOB ([20]; 250 g ai/ha) | Pre-emerge crop damage CORN (phytotoxicity rating, scale 0-100) ([22]; 63 g ai/ha) | Pre-emerge crop damage CORN (phytotoxicity rating, scale 0-100) ([22]; 250 g ai/ha) | Post-emerge Herbicidal Activity RICE (crop damage) ([23]; 63 g ai/ha) | Post-emerge Herbicidal Activity RICE (crop damage) ([23]; 250 g ai/ha) | Post-emerge Herbicidal Activity CORN (crop damage) ([24]; 63 g ai/ha) | Post-emerge Herbicidal Activity CORN (crop damage) ([24]; 250 g ai/ha)
20: Pre-emerge crop damage RICE (phytotoxicity rating, scale 0-100) ([21]; 63 g ai/ha)
60: Post-emerge Herbicidal Activity CHEAL ([17]; 250 g ai/ha)
50: Pre-emerge Herbicidal Activity AMBEL (phytotoxicity rating, scale 0-100) ([4]; 250 g ai/ha) | Pre-emerge Herbicidal Activity IPOHE (phytotoxicity rating, scale 0-100) ([8]; 250 g ai/ha)
30: Pre-emerge Herbicidal Activity SORHA (phytotoxicity rating, scale 0-100) ([2]; 250 g ai/ha) | Post-emerge Herbicidal Activity AMARE ([13]; 250 g ai/ha) | Post-emerge Herbicidal Activity AMBEL ([14]; 250 g ai/ha) | Post-emerge Herbicidal Activity ABUTH [19]
100: Pre-emerge Herbicidal Activity AMARE (phytotoxicity rating, scale 0-100) ([1]; 250 g ai/ha) | Pre-emerge Herbicidal Activity SETVI (phytotoxicity rating, scale 0-100) ([5]; 250 g ai/ha) | Pre-emerge Herbicidal Activity DIGSA (phytotoxicity rating, scale 0-100) ([6]; 250 g ai/ha) | Pre-emerge Herbicidal Activity CHEAL (phytotoxicity rating, scale 0-100) ([7]; 250 g ai/ha) | Pre-emerge Herbicidal Activity ABUTH (phytotoxicity rating, scale 0-100) ([9]; 250 g ai/ha)
40: Pre-emerge Herbicidal Activity CASOB (phytotoxicity rating, scale 0-100) ([10]; 63 g ai/ha) | Pre-emerge Herbicidal Activity CASOB (phytotoxicity rating, scale 0-100) ([10]; 250 g ai/ha) | Pre-emerge crop damage RICE (phytotoxicity rating, scale 0-100) ([21]; 250 g ai/ha)
70: Post-emerge Herbicidal Activity IPOHE ([18]; 250 g ai/ha)
90: Pre-emerge Herbicidal Activity CHEAL (phytotoxicity rating, scale 0-100) ([7]; 63 g ai/ha) | Pre-emerge Herbicidal Activity ABUTH (phytotoxicity rating, scale 0-100) ([9]; 63 g ai/ha)
10: Post-emerge Herbicidal Activity AMARE ([13]; 63 g ai/ha)
